Active and inactive are the calls of the source. The rule behind the calls is not given here.
Tested on: rodent lifetime carcinogenesis bioassay, tumor incidence TD50
Test: carcinogenic potency in animals, long-term in vivo studies, CPDB compilation (AID 1745844)

CC(=O)OC[C@H]1O[C@@](COC(=O)C(C)C)(O[C@H]2O[C@H](COC(C)=O)[C@@H](OC(=O)C(C)C)[C@H](OC(=O)C(C)C)[C@H]2OC(=O)C(C)C)[C@@H](OC(=O)C(C)C)[C@@H]1OC(=O)C(C)C
carcinogen call (mouse, strain B6C3F1, females, in feed, site: any site (literature study), lesion: several types, types named in the paper, dosed 104 weeks, study length 104 weeks): negative (inactive)
carcinogen call (mouse, strain B6C3F1, males, in feed, site: any site (literature study), lesion: several types, types named in the paper, dosed 104 weeks, study length 104 weeks): negative (inactive)
TD50 (rat, strain Fischer 344, females, in feed, site: any site (literature study), lesion: several types, types named in the paper, dosed 52 weeks, study length 52 weeks): 3250 mg/kg/day (inactive)
carcinogen call (rat, strain Fischer 344, females, in feed, site: any site (literature study), lesion: several types, types named in the paper, dosed 104 weeks, study length 104 weeks): negative (inactive)
TD50 (rat, strain Fischer 344, females, in feed, site: liver, lesion: hepatocellular adenoma, dosed 52 weeks, study length 52 weeks): 3250 mg/kg/day (inactive)
carcinogen call (rat, strain Fischer 344, males, in feed, site: any site (literature study), lesion: several types, types named in the paper, dosed 52 weeks, study length 52 weeks): negative (inactive)
carcinogen call (rat, strain Fischer 344, males, in feed, site: any site (literature study), lesion: several types, types named in the paper, dosed 104 weeks, study length 104 weeks): negative (inactive)
carcinogen call (rat, strain Fischer 344, males, in feed, site: liver, lesion: one or several types, types not named, dosed 52 weeks, study length 52 weeks): negative (inactive)

[S-]c1nc2ccccc2s1.[S-]c1nc2ccccc2s1.[Zn+2]
carcinogen call (mouse, strain B6AKF1, females, oral dosing, site: any site (literature study), lesion: several types, types named in the paper, dosed 76 weeks, study length 76 weeks): negative (inactive)
carcinogen call (mouse, strain B6AKF1, females, oral dosing, site: liver, lesion: hepatoma, dosed 76 weeks, study length 76 weeks): negative (inactive)
carcinogen call (mouse, strain B6AKF1, females, oral dosing, site: lung, lesion: adenoma, dosed 76 weeks, study length 76 weeks): negative (inactive)
carcinogen call (mouse, strain B6AKF1, males, oral dosing, site: any site (literature study), lesion: several types, types named in the paper, dosed 76 weeks, study length 76 weeks): negative (inactive)
carcinogen call (mouse, strain B6AKF1, males, oral dosing, site: liver, lesion: hepatoma, dosed 76 weeks, study length 76 weeks): negative (inactive)
carcinogen call (mouse, strain B6AKF1, males, oral dosing, site: lung, lesion: adenoma, dosed 76 weeks, study length 76 weeks): negative (inactive)
TD50 (mouse, strain B6C3F1, females, oral dosing, site: any site (literature study), lesion: several types, types named in the paper, dosed 76 weeks, study length 76 weeks): 2790 mg/kg/day (inactive)
carcinogen call (mouse, strain B6C3F1, females, oral dosing, site: liver, lesion: hepatoma, dosed 76 weeks, study length 76 weeks): negative (inactive)
carcinogen call (mouse, strain B6C3F1, females, oral dosing, site: lung, lesion: several types, types named in the paper, dosed 76 weeks, study length 76 weeks): negative (inactive)
TD50 (mouse, strain B6C3F1, males, oral dosing, site: any site (literature study), lesion: several types, types named in the paper, dosed 76 weeks, study length 76 weeks): 319 mg/kg/day (inactive)
TD50 (mouse, strain B6C3F1, males, oral dosing, site: liver, lesion: hepatoma, dosed 76 weeks, study length 76 weeks): 388 mg/kg/day (inactive)
TD50 (mouse, strain B6C3F1, males, oral dosing, site: lung, lesion: adenoma, dosed 76 weeks, study length 76 weeks): 2750 mg/kg/day (inactive)

Cn1cnc2nc(N)[nH]c(=O)c21
TD50 (rat, strain BR 46, both sexes, i.v., site: any site (literature study), lesion: malignant tumor, dosed 106 weeks, study length 126 weeks): 8.24 mg/kg/day (inactive)

C[C@H](CCC(=O)O)[C@H]1CC[C@H]2[C@@H]3CC[C@@H]4C[C@H](O)CC[C@]4(C)[C@H]3CC[C@]12C
TD50 (mouse, strain B6C3F1, females, by gavage, site: any site (literature study), lesion: several types, types named in the paper, dosed 103 weeks, study length 105 weeks): 960 mg/kg/day (inactive)
TD50 (mouse, strain B6C3F1, females, by gavage, site: liver, lesion: hepatocellular adenoma + hepatocellular carcinoma + neoplastic nodule, dosed 103 weeks, study length 105 weeks): 1140 mg/kg/day
TD50 (mouse, strain B6C3F1, females, by gavage, site: lung, lesion: alveolar/bronchiolar adenoma + alveolar/bronchiolar carcinoma, dosed 103 weeks, study length 105 weeks): 1030 mg/kg/day
carcinogen call (mouse, strain B6C3F1, males, by gavage, site: any site (literature study), lesion: several types, types named in the paper, dosed 103 weeks, study length 105 weeks): negative (inactive)
TD50 (mouse, strain B6C3F1, males, by gavage, site: lung, lesion: alveolar/bronchiolar adenoma + alveolar/bronchiolar carcinoma, dosed 103 weeks, study length 105 weeks): 834 mg/kg/day
TD50 (rat, strain Fischer 344, females, by gavage, site: any site (literature study), lesion: several types, types named in the paper, dosed 103 weeks, study length 104 weeks): 686 mg/kg/day (inactive)
TD50 (rat, strain Fischer 344, females, by gavage, site: liver, lesion: hepatocellular adenoma + hepatocellular carcinoma + neoplastic nodule, dosed 103 weeks, study length 104 weeks): 1890 mg/kg/day
TD50 (rat, strain Fischer 344, males, by gavage, site: any site (literature study), lesion: several types, types named in the paper, dosed 103 weeks, study length 104 weeks): 501 mg/kg/day (inactive)
TD50 (rat, strain Fischer 344, males, by gavage, site: liver, lesion: hepatocellular adenoma + hepatocellular carcinoma + neoplastic nodule, dosed 103 weeks, study length 104 weeks): 2250 mg/kg/day

FC(F)OC(Cl)C(F)(F)F (stereo not drawn)
carcinogen call (mouse, strain Swiss Webster, females, inhaled, site: liver, lesion: basophil adenoma, dosed 78 weeks, study length 81 weeks): negative (inactive)
TD50 (mouse, strain Swiss Webster, females, inhaled, site: lung, lesion: alveolar-cell adenoma, dosed 78 weeks, study length 81 weeks): 30000 mg/kg/day (inactive)
carcinogen call (mouse, strain Swiss Webster, males, inhaled, site: liver, lesion: basophil adenoma, dosed 78 weeks, study length 81 weeks): negative (inactive)
carcinogen call (mouse, strain Swiss Webster, males, inhaled, site: lung, lesion: alveolar-cell adenoma, dosed 78 weeks, study length 81 weeks): negative (inactive)

CCN(CC)C(C)=O
TD50 (rat, strain Wistar, males, by gavage, site: any site (literature study), lesion: several types, types named in the paper, dosed 73 weeks, study length 73 weeks): 11.8 mg/kg/day
TD50 (rat, strain Wistar, males, by gavage, site: kidney, lesion: papillary transitional-cell carcinoma, dosed 73 weeks, study length 73 weeks): 8.85 mg/kg/day

NNc1ccc(C(=O)O)cc1
TD50 (mouse, strain Swiss albino, females, in drinking water, site: aorta and large arteries, lesion: leiomyoma, dosed 121 weeks, study length 121 weeks): 2660 mg/kg/day
TD50 (mouse, strain Swiss albino, females, in drinking water, site: aorta and large arteries, lesion: leiomyosarcoma, dosed 121 weeks, study length 121 weeks): 1970 mg/kg/day
TD50 (mouse, strain Swiss albino, females, in drinking water, site: aorta and large arteries, lesion: several types, types named in the paper, dosed 121 weeks, study length 121 weeks): 1070 mg/kg/day
TD50 (mouse, strain Swiss albino, females, in drinking water, site: lung, lesion: adenocarcinoma, dosed 121 weeks, study length 121 weeks): 11200 mg/kg/day
TD50 (mouse, strain Swiss albino, females, in drinking water, site: lung, lesion: adenoma, dosed 121 weeks, study length 121 weeks): 1170 mg/kg/day
TD50 (mouse, strain Swiss albino, females, in drinking water, site: lung, lesion: several types, types named in the paper, dosed 121 weeks, study length 121 weeks): 1140 mg/kg/day
TD50 (mouse, strain Swiss albino, males, in drinking water, site: aorta and large arteries, lesion: leiomyoma, dosed 120 weeks, study length 120 weeks): 1490 mg/kg/day
TD50 (mouse, strain Swiss albino, males, in drinking water, site: aorta and large arteries, lesion: leiomyosarcoma, dosed 120 weeks, study length 120 weeks): 609 mg/kg/day
TD50 (mouse, strain Swiss albino, males, in drinking water, site: aorta and large arteries, lesion: several types, types named in the paper, dosed 120 weeks, study length 120 weeks): 380 mg/kg/day
TD50 (mouse, strain Swiss albino, males, in drinking water, site: lung, lesion: adenoma, dosed 120 weeks, study length 120 weeks): 597 mg/kg/day
TD50 (mouse, strain Swiss albino, males, in drinking water, site: lung, lesion: several types, types named in the paper, dosed 120 weeks, study length 120 weeks): 675 mg/kg/day
carcinogen call (mouse, strain Swiss, females, by gavage, site: lung, lesion: one or several types, types not named, dosed 40 weeks, study length 55 weeks): negative (inactive)

— PubChem BioAssay AID1745844 (Carcinogenic Potency Database (CPDB), 2022)
